{"source": "patent US7432050B2", "about": "“Methods and compositions for detecting colon cancers” (Case Western Reserve University, priority 2001, dated 2008)", "system": "HLTF expression", "test": "RT-PCR assay for HLTF expression reactivation after 5-azacytidine treatment", "type": "cell-based, human", "experimental": "The cultures were grown and treated as described previously (Veigl, et al., 1998, Proc. Natl. Acad. Sci. USA, 95:8698-8702). The optimal tolerated doses were determined for each treated line, and two doses were used for some lines, ranging from 1 μg/ml to 3 μg/ml.\nTo establish that methylation was responsible for silencing HLTF gene expression, cell lines with HLTF DNA methylation were treated with 5-azacytidine (5-azaC), a demethylating agent.", "note": "Entries after “also recorded” stand apart in the source; their conditions may differ.", "data": [{"molecule": "Nc1ncn([C@@H]2O[C@H](CO)[C@@H](O)[C@H]2O)c(=O)n1", "note": "[5-azaC, 5-azacytidine]", "values": [{"measurement": "reactivation of HLTF expression", "setting": "colon cancer cell lines with HLTF DNA methylation (RCA, V457, SW480, V5, V6, V432), 1 μg/ml to 3 μg/ml", "value": "reactivates HLTF expression; also recorded: reactivated HLTF expression in all these cell lines"}, {"measurement": "change of HLTF expression in control cell lines", "setting": "control cell lines with constitutive HLTF expression and unmethylated HLTF DNA (V429, V503)", "value": "did not further increase HLTF expression"}]}]}
